The source of these data is patent publication US20080031887A1, “Conjugates for inducing targeted immune responses and methods of making and using same” (priority 2006, published 2008).

Common to all, as to type: in vivo
In one assay the test system is N202.A2 cells. Briefly: N202.A2 tumors implanted s.c. in A2×neu mice, treatment with TLR ligands from day 10. To be noted: 20 μg/injection three times a week for three weeks; for antitumor effect (tumor rejection / tumor growth): i.t. injection, FIG. 1C; for antitumor effect: s.c. injection in the opposite flank, data not shown. On the procedure: FIG. 1 contains graphic representations illustrating that intratumoral injections of CpG-ODN induce rejection of tumors in Balb/c, BALB-neuT and A2×neu mice. Balb/c and BALB-neuT were implanted s.c. with 10^6 TUBO cells, and A2×neu mice were implanted s.c. with 10^6 N202.A2 cells on day zero. On day 10, animals started treatment with i.t. injections of TLR-ligands three times a week (20 μg/injection) for three weeks.
(§1) For these experiments, Balb/c (non-tolerant) and BALB-neuT (tolerant) mice implanted with TUBO cells and A2×neu mice implanted with N202.A2 cells were used (it is important to remember that TUBO cells are tumorigenic in Balb/c and BALB-neuT mice, while N202.A2 cells are tumorigenic only in A2×neu mice but not in A2×FVB mice). It is well established that the injection of these ligands results in the activation of DCs, monocytes/macrophages, and B cells, and as a consequence of the activation of these cells, NK cell and T cell responses are stimulated. […] Balb/c and BALB-neuT mice were implanted s.c. with 10^6 TUBO cells, and A2×neu mice were implanted s.c. with 10^6 N202.A2 cells on day zero. On day 10, animals started treatment with s.c. injections of anti-CD40 mAb, Poly I:C, LPS, flagellin, imiquimod, CpG-ODN and control-ODN (as a control) in the opposite flank from where the tumor was injected, three times a week (20 μg/injection) for three weeks. […] It was decided to test whether intratumoral (i.t.) injection of TLR ligands would result in the induction of an antitumor response. The effect of i.t. injections of anti-CD40 mAb, Poly I:C, LPS, flagellin, imiquimod, CpG-ODN and control-ODN (as a control) three times a week (20 μg/injection) for three weeks was tested.

For assay [1], the system named is TUBO cells. As to the kind of experiment: TUBO tumors implanted s.c. in BALB-neuT (tolerant) mice, treatment from day 10. The following applies: 20 μg/injection three times a week for three weeks; for antitumor effect (tumor rejection / tumor growth): i.t. injection, FIG. 1B; for antitumor effect: s.c. injection in the opposite flank, data not shown. Here is the method: (§2) FIG. 1 contains graphic representations illustrating that intratumoral injections of CpG-ODN induce rejection of tumors in Balb/c, BALB-neuT and A2×neu mice. Balb/c and BALB-neuT were implanted s.c. with 10^6 TUBO cells, and A2×neu mice were implanted s.c. with 10^6 N202.A2 cells on day zero. On day 10, animals started treatment with i.t. injections of TLR-ligands three times a week (20 μg/injection) for three weeks. […]
as §1, with “tested. […]” for “tested.”

In assay [2] the test system is TUBO cells. As to the kind of experiment: TUBO tumors implanted s.c. in Balb/c (non-tolerant) mice, treatment from day 10. To be noted: 20 μg/injection three times a week for three weeks; for antitumor effect (tumor rejection / tumor growth): i.t. injection, FIG. 1A; for antitumor effect: s.c. injection in the opposite flank, data not shown. On the procedure:
as §2
as §1, with “tested. […]” for “tested.”
Evaluation of anti-neu-CpG-ODN (cleavable bond) vs. anti-neu-CpG-ODN (non-cleavable bond). In determining the effectiveness of the conjugates of the present invention, the antitumor effects of anti-neu-CpG-ODN generated with a cleavable bond or non-cleavable bond were evaluated. Anti-neu-CpG-ODN generated with a non-cleavable bond was produced by the reaction pathway shown in FIG. 7A and contained a hydrazone linkage between the Anti-neu antibody and the CpG-ODN. Anti-neu-CpG-ODN generated with a cleavable bond was produced by the reaction pathway shown in FIG. 7B and contained a disulfide cleavable linkage. TUBO cells (1×10^6) were implanted s.c. on day zero on Balb/c. Starting on day 10, animals were injected intratumorally with 30 μg/injection of each of the anti-neu-CpG-ODN molecules three times a week for three weeks.

For `CC(C)Cn1cnc2c(N)nc3ccccc3c21` [imiquimod], the “antitumor effect (tumor rejection / tumor growth)” value in the assay on N202.A2 cells, with TUBO cells [1] and in the assay on TUBO cells [2] was “did not have any effect in controlling the tumor growth” in each case. The antitumor effect entry in the assay on N202.A2 cells, in the assay with TUBO cells [1] and with TUBO cells [2] was “no antitumor effect” in each case.

In the case of Poly I:C, the antitumor effect entry in the assay with N202.A2 cells, with TUBO cells [1] and in the assay on TUBO cells [2] was “no antitumor effect” in each case. Besides, in the assay on TUBO cells [2], the “antitumor effect (tumor rejection / tumor growth)” value is recorded as “induced the rejection of tumors”.

With flagellin, the “antitumor effect (tumor rejection / tumor growth)” value with N202.A2 cells, in the assay with TUBO cells [1] and in the assay on TUBO cells [2] was “did not have any effect in controlling the tumor growth” throughout. Moreover, the antitumor effect result in the assay with N202.A2 cells, with TUBO cells [1] and in the assay on TUBO cells [2] was “no antitumor effect” in each case.
